Experimental data as given in US20110275673A1, “INHIBITORS OF SPHINGOSINE KINASE 1” (priority 2008, published 2011).

Target: T1, SPHK-1 (Homo sapiens, UniProt Q9NYA1)
T1 construct: purchased BPS Bioscience
Test: Reporter Assay: sphingosine kinase conversion of fluorescein-labeled sphingosine, read on Lab Chip 3000
Assay type: biochemical
Details: 2 μM Fl-sphingosine, 25 μM ATP, 300 ng/ml SK1, 1 hour at room temperature; from percent conversion of substrate to product; read-out: SPHK-1 IC50 (n =)
Experimental: Sphingosine kinase is a 49 kDa enzyme that catalyzes the formation of sphingosine-1-phosphate (S-1-P) from sphingosine.
Fluorescein labeled sphingosine was obtained from Echelon Biosciences (S-100F). Buffer reagents (1 M Hepes, 10 triton x-100, 100% glycerol, dithiothreitol 1 M MgCl2, ATP, 500 mM EDTA and DMSO) were purchased from Sigma. Coating reagent (CR-3), was obtained from Caliper Life Sciences.
0.05% Triton X-100, 2.5% glycerol, 0.1% CR-3, and 0,6% DMSO. Termination butler included 100 mM Hepes (pH 7.5), 40 mM EDTA, 0.05% Triton X-100, 2.5% glycerol, 0.3% CR-3, and 0.6% DMSO.
All assay components were made in reaction buffer. […] The assaylvas allowed to incubate at room temperature sealed and protected from light for 1 hour.
After 1 hour, 10 μl of termination buffer was added to terminate, the reaction, and the plate was read on a Lab Chip 3000. The plate was read for one cycle. The Lab Chip separated substrate and product based on charge.
Results were calculated based on percent conversion of substrate to product using the following formula: […]
Percent inhibition and IC50's for compounds of the invention were determined using the percent conversion values obtained horn the Lab Chip.

T1 sequence (Q9NYA1 whole entry): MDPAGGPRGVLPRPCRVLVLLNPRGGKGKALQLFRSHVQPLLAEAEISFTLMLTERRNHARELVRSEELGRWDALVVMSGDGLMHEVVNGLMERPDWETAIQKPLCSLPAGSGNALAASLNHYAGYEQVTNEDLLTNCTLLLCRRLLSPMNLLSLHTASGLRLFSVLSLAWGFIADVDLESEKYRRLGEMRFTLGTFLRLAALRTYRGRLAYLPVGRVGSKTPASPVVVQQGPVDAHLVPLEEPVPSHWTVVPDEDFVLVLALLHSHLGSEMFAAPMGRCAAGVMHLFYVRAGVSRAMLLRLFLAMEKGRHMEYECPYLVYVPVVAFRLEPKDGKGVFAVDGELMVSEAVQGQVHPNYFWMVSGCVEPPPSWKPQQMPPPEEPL

Row | SMILES | IC50
1 | CCCCCCCCc1cc2cc(CNC(=O)[C@H]3NCC[C@@H]3O)ccc2[nH]1 [Example 108, (2S,3S)-3-Hydroxy-N-((2-octyl-1H-indol-5-yl)methyl)pyrrolidine-2-carboxamide] | 9400 nM
2 | CCCCCCCCc1cc2cc(CNC(=O)[C@H]3NCC[C@@H]3O)ccc2n1C [Example 109, (2S,3S)-3-Hydroxy-N-((1-methyl-2-octyl-1H-indol-5-yl)methyl)pyrrolidine-2-carboxamide] | 300 nM
3 | O=C(NCc1ccc2oc(CCCOc3ccc(F)cc3)cc2c1)[C@H]1NCC[C@@H]1O [Example 110, (2S,3S)—N-((2-(3-(4-Fluorophenoxy)propyl)benzofuran-5-yl)methyl)-3-hydroxypyrrolidine-2-carboxamide] | 5200 nM
4 | O=C(NCc1ccc2oc(CCOc3ccc(F)cc3)cc2c1)[C@H]1NCC[C@@H]1O [Example 111, (2S,3S)—N-((2-(2-(4-Fluorophenoxy)ethyl)benzofuran-5-yl)methyl)-3-hydroxypyrrolidine-2-carboxamide] | 5000 nM
5 | CCCCCCCCc1cc2ccc(CNC(=O)[C@H]3NCC[C@@H]3O)cc2o1 [Example 112, (2S,3S)-3-Hydroxy-N-((2-octylbenzofuran-6-yl)methyl)pyrrolidine-2-carboxamide] | 490 nM
6 | CCCCCCCc1cc2cc(CNC(=O)[C@H]3NCC[C@@H]3O)ccc2o1 [Example 113, (2S,3S)—N-((2-Heptylbenzofuran-5-yl)methyl)-3-hydroxypyrrolidine-2-carboxamide] | 160 nM
7 | CCCCCCc1cc2cc(CNC(=O)[C@H]3NCC[C@@H]3O)ccc2o1 [Example 114, (2S,3S)—N-((2-Hexylbenzofuran-5-yl)methyl)-3-hydroxypyrrolidine-2-carboxamide] | 530 nM
8 | O=C(NCc1ccc2oc(C3CCCCC3)cc2c1)[C@H]1NCC[C@@H]1O [Example 115, (2S,3S)—N-((2-Cyclohexylbenzofuran-5-yl)methyl)-3-hydroxypyrrolidine-2-carboxamide] | 1200 nM
9 | O=C(NCc1ccc2oc(CC3CCCCC3)cc2c1)[C@H]1NCC[C@@H]1O [Example 116, (2S,3S)—N-((2-(Cyclohexylmethyl)benzofuran-5-yl)methyl)-3-hydroxypyrrolidine-2-carboxamide] | 110 nM
10 | O=C(NCc1ccc2oc(CCC3CCCCC3)cc2c1)[C@H]1NCC[C@@H]1O [Example 117, (2S,3S)—N-((2-(2-Cyclohexylethyl)benzofuran-5-yl)-methyl)-3-hydroxypyrrolidine-2-carboxamide] | 430 nM
11 | CCCCCCCCc1cc2cc(CNC(=O)[C@H]3NCC[C@@H]3O)cc(F)c2o1 [Example 118, (2S,3S)—N-((7-Fluoro-2-octylbenzofuran-5-yl)methyl)-3-hydroxypyrrolidine-2-carboxamide] | 460 nM
12 | CCCCCCCCc1cc2cc(CNC(=O)[C@H]3NCC[C@@H]3O)c(F)cc2o1 [Example 119, (2S,3S)—N-((6-Fluoro-2-octylbenzofuran-5-yl)methyl)-3-hydroxypyrrolidine-2-carboxamide] | 700 nM
13 | O=C(NCc1cc(F)c2oc(CC3CCCC3)cc2c1)[C@H]1NCC[C@@H]1O [Example 120, (2S,3S)—N-((2-(Cyclopentylmethyl)-7-fluorobenzofuran-5-yl)methyl)-3-hydroxypyrrolidine-2-carboxamide] | 2300 nM
14 | CCCCCCCCc1cc2c(F)c(CNC(=O)[C@H]3NCC[C@@H]3O)ccc2o1 [Example 121, (2S,3S)—N-((4-Fluoro-2-octylbenzofuran-5-yl)methyl)-3-hydroxypyrrolidine-2-carboxamide] | 510 nM
15 | O=C(NCc1cc(F)c2oc(C3CCCCC3)cc2c1)[C@H]1NCC[C@@H]1O [Example 122, (2S,3S)—N-((2-Cyclohexyl-7-fluorobenzofuran-5-yl)methyl)-3-hydroxypyrrolidine-2-carboxamide] | 790 nM
16 | CCCCCCCCCCc1ccc(NC(=O)[C@H]2C[C@H](O)CCN2)cc1 [Example 123, (2R,4R)—N-(4-decylphenyl)-4-hydroxypiperidine-2-carboxamide] | 9700 nM
17 | CCCCCCCCCCc1ccc(NC(=O)[C@@H]2C[C@@H](O)CCN2)cc1 [Example 124, (2S,4S)—N-(4-decylphenyl)-4-hydroxypiperidine-2-carboxamide] | 2700 nM
